Patent US20260216348A1, “IRAK DEGRADATION AGENT AND USE THEREOF” (Increland, priority 2023, published 2026)

System: CIA-induced rheumatoid arthritis model
Experiment: CIA-induced rheumatoid arthritis model
Assay type: in vivo, DBA/1J mice
Conditions: QD, Model 12.31 ± 2.97, Mean ± SD, n = 7
Description: 1. DBA/1J mice, male, SPF grade, were pre-acclimatized in the animal facility for one week. 2. On day 1, for the primary immunization, 2 mg/mL bovine type II collagen was mixed thoroughly with an equal volume of complete Freund's adjuvant on ice using a homogenizer until fully emulsified. 100 μL of the collagen emulsion (final concentration 1 mg/mL) was intradermally injected at 2 cm from the base of the mouse tail. Medical iodophor was used to disinfect the tail after injection to prevent tail necrosis, which was conducted for 3 consecutive days. 3. On day 21, bovine type II collagen solution was thoroughly mixed and emulsified with an equal volume of Freund's incomplete adjuvant, using the same method as the primary immunization. 4. On day 26, LPS was administered intraperitoneally at a dose of 50 μg/animal to induce disease. 5. On day 28, the affected mice were scored according to Table 33 and the diameter of their ankle joints was measured. Mice were randomly grouped and treated with medication based on their scores and ankle diameter.

SMILES: CN(C)c1cc2nn([C@H]3CC[C@H](CN4CC[C@@H](n5cc6cc(C7CCC(=O)NC7=O)c(F)cc6n5)[C@@H](F)C4)CC3)cc2cc1NC(=O)c1cnn2cccnc12 (some centres unmarked) [TM-135]
- DAI Score d 42 (15 mg/kg): 11.17 ± 2.36
- DAI Score d 42 (45 mg/kg): 9.60 ± 3.33
